Measurements from patent publication US8628961B2, “Small molecule antagonists of phosphatidylinositol-3,4,5-triphosphate (PIP3) and uses thereof” (Tufts University, priority 2010, dated 2014).

How the values were obtained:
[1] = Solubility (aqueous, cell media); assay type: physicochemical
Source text: The size of the DM-PIT-1-loaded micelles was about 15 nm with a narrow size distribution.

[2] = tested on: differentiated HL-60 cells; assay: fMLP-stimulated cell polarization; assay type: cell-based; settings: 100 μM, 2 hr
Experimental: In another set of experiments, the ability of PITs to inhibit fMLP-stimulated HL-60 cell polarization was examined. Differentiated HL-60 cells were treated with PIT-1, PIT-2, PIT-1i-1, or PIT-1i-2, each at 100 μM for 2 hr, followed by stimulation with 100 nM fMLP for 3 min. Actin was stained and analyzed using fluorescent microscopy. The number of the polarized cells was counted in five random fields.

eIF-1 = eIF-1 (Homo sapiens (Human), UniProt P41567); assay: NMR HSQC specificity control; assay type: binding
Rac1 = Rac1 activation pull-down (GST-Pak1-PBD), western blot; assay type: cell-based, human; settings: SUM159, PDGF
Experimental: Rho/Rac family, especially Rac1, plays a critical role in actin polymerization, membrane ruffling/lamellipodia formation, and cell motility (Ridley A J et al. (1992) Cell 70:401-410) downstream of the GEFs, e.g., VAV family, and upstream of the WAVE family. The effect of PITs on Rac1 activation was therefore analyzed. SUM159 cells were seeded on 10 cm^2 plates and serum starved overnight, treated with different PIT compounds at a variety of concentrations for 2 hr, and then stimulated with 100 ng/ml PDGF for 15 min. Next, cells were rinsed once with PBS, and 1 ml lysis buffer (25 mM Tris-HCl, pH 7.5, 150 mM NaCl, 5 mM MgCl2, 1% NP-40, 1 mM DTT, 5% glycerol, 1 μg/ml aprotinin, 1 μg/ml leupeptin and 1 mM PMSF) was added per plate. The cells were scraped and transferred to a microcentrifuge tube, vortexed briefly, and incubated on ice for 5 min, followed by a centrifugation at 16,000×g at 4° C. for 15 min. The supernatant was collected. A sample of the lysate was used to ensure equal protein concentration in the samples. Next, 700 μl lysate, 20 μl glutathione-sepharose beads, and 20 μg GST-human Pak1-PBD were mixed together, and the reaction mixture was incubated at 4° C. for 1 hr with gentle rocking. The beads were then washed three times with lysis buffer, and proteins were eluted by boiling beads in 50 μl of the 2×SDS sample buffer at 95-100° C. for 5 min. […]

WAVE2 = WAVE2 (Homo sapiens (Human), UniProt Q9Y6W5); assay: Plasma membrane translocation assay (GFP fusion); assay type: cell-based
Experimental: (§1) To begin characterizing cellular activity of PITs, a PH domain translocation assay was performed, measuring PIP3-induced association of GFP-fused PH domains with the plasma membrane. This method provides useful means for monitoring status of the PH domain/PIP3 binding in the intact cells. Varnai P et al. (1999) J Biol Chem 274:10983-9. Several PH-domain-containing proteins, which are known to bind PIP3 specifically and efficiently, were examined. […] Oikawa T et al. (2004) Nat Cell Biol 6:420-6.

VAV2 = VAV2 (Homo sapiens (Human), UniProt P52735); assay: Plasma membrane translocation assay (GFP fusion); assay type: cell-based; settings: PDGF stimulation
Experimental: as §1

[3] = tested on: AMPK and ACC phosphorylation, LC3-II; assay: Metabolic stress and autophagy markers; assay type: cell-based, human
Source text: Changes in cell metabolism have emerged in recent years as an important component of PI3K/PIP3/Akt signaling, contributing to the regulation of cell viability and transformation by the PI3K/Akt pathway. Datta S R et al. (1999) Genes Dev 13:2905-27; Elstrom R L et al. (2004) Cancer Res 64:3892-9. Therefore, the possibility that PIT-1 may cause dysregulation of energy homeostasis and induction of the metabolic stress in cancer cells, which may contribute to the PIT-induced cell death, was investigated. […] Hardie D G (2007) Nat Rev Mol Cell Biol 8:774-85. […] Mathew R et al. (2007) Nat Rev Cancer 7:961-7. […] It is also consistent with the established role of Akt as an inhibitor of autophagy. […] Takeuchi H et al. (2005) Cancer Res 65:3336-46.

[4] = tested on: Bax/Bak double knockout cells; assay: Cell killing in Bax/Bak double knockout versus wild-type cells; assay type: cell-based, mouse
Experimental: Human and mouse cancer cell lines (U87MG, SUM159, A549, MDA-MB-231, 4T1, B16-F10) and human umbilical vein endothelial cells (HUVEC) were purchased from the American Type Culture Collection (Rockville, Md., USA). Mouse adult lung fibroblasts (Akt-deficient and Akt1-expressing) were a generous gift of Dr. Philip Tsichlis (Tufts University). Maroulakou I et al. (2007) Cancer Res 67:167-77. Bax/Bak double knockout mouse embryonic fibroblasts (Wei M C et al. (2001) Science 292:727-30) and matched wild-type cells were a generous gift of Dr. Stanley Korsmeyer (Dana-Farber Cancer Center). B16-F10, U87MG, 4T1, A549, MDA-MB-231 and fibroblast cells were cultured in DMEM medium with 10% fetal bovine serum (FBS). SUM159 was maintained in Ham's F-12 medium with 5% FBS, 5 μg/ml insulin, and 1 μg/ml hydrocortisone. HUVEC cells were cultured in M199 medium with 20% FBS, 20 μg/ml ECGS, and 50 μg/ml heparin. All media were supplemented with 100 units/ml penicillin, 100 μg/ml streptomycin, and 2 mM glutamine. All cells were cultured in a humidified atmosphere of 95% air and 5% CO2 at 37° C.
Since PI3K/PIP3/Akt signaling plays a critical role in the inhibition of apoptosis (Datta S R et al. (1999) Genes Dev 13:2905-27), the possibility that PITs induce apoptosis was examined. […] Proapoptotic Bcl-2 family members Bax and Bak are important mediators of apoptosis. Wei M C et al. (2001) Science 292:727-30. […]

Sequence of WAVE2 (Q9Y6W5 whole entry, species assumed, the tested form may be a part): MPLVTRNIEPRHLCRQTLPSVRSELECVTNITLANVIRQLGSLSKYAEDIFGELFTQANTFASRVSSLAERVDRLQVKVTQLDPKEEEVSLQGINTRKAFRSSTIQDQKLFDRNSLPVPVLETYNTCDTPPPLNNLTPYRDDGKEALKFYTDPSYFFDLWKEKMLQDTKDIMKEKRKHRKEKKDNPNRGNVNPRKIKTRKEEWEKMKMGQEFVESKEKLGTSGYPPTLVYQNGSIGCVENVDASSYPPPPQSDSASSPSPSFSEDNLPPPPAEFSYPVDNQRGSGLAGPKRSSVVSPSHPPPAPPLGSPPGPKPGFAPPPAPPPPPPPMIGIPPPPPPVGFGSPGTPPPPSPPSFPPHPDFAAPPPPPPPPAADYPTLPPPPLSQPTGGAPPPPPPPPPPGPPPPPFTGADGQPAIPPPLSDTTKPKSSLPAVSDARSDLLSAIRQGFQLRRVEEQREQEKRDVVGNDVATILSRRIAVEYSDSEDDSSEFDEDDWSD
Sequence of VAV2 (P52735 whole entry, species assumed, the tested form may be a part): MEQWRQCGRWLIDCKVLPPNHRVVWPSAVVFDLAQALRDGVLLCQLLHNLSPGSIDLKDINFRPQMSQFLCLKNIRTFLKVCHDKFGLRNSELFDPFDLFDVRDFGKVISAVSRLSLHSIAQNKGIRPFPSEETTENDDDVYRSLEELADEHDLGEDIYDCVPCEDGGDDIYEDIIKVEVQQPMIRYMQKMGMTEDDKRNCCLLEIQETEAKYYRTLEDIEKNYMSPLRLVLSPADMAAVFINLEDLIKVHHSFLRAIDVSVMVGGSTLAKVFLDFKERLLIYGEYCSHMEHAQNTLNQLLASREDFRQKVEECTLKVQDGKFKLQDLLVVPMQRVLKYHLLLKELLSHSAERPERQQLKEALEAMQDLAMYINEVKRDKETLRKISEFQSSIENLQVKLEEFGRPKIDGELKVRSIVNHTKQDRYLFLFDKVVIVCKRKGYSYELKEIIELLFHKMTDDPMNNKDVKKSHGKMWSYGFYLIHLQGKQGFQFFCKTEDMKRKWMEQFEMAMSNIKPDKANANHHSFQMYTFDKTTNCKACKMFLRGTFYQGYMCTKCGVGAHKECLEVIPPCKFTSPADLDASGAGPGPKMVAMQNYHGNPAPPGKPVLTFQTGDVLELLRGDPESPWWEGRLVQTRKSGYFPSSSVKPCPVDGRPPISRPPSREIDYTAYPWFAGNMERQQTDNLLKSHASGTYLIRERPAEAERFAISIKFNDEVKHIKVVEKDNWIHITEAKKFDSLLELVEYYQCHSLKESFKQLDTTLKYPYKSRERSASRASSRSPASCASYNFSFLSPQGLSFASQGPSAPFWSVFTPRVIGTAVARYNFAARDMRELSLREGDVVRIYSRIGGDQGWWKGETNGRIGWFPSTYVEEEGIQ
Sequence of eIF-1 (P41567 whole entry, species assumed): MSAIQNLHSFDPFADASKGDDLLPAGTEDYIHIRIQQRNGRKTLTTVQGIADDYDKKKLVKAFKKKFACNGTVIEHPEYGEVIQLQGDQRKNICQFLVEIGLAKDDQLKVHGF

Compound: O=C(NC(=S)Nc1cc([N+](=O)[O-])cc(Cl)c1O)c1ccccc1 [PIT-1]
- aqueous solubility [1]: limited aqueous solubility
- fMLP-stimulated polarization of differentiated HL-60 neutrophils [2]: efficient inhibition
- changes in HSQC spectra of eIF-1 (eIF-1): did not elicit any changes
- activation of Rac1 caused by growth factor stimulation (Rac1): efficiently suppressed the activation of Rac1
- plasma membrane translocation of WAVE2 (WAVE2): suppressed the plasma membrane translocation
- plasma membrane translocation of VAV2 (VAV2): significantly inhibited the translocation
- phosphorylation of ACC [3]: Increased phosphorylation
- phosphorylation of AMPK [3]: significant increase in the phosphorylation
- expression of autophagic marker LC3-II ([3]; U87MG cells): prominently increased the expression
- killing of Bax/Bak double knockout compared with wild-type cells [4]: reduced in Bax/Bak double knockout cells
